Laboratory results taken from ChEMBL document CHEMBL5634117 (Eur J Med Chem, 2023).

Columns and labels:
CCRF-CEM = assay: Growth inhibition of human CCRF-CEM cells assessed as reduction in cell viability measured after 48 hrs by SRB assay; assay type: functional
HL-60(TB) = assay: Growth inhibition of human HL-60(TB) cells assessed as reduction in cell viability measured after 48 hrs by SRB assay; assay type: functional
MOLT-4 = assay: Growth inhibition of human MOLT-4 cells assessed as reduction in cell viability measured after 48 hrs by SRB assay; assay type: functional
A549 = assay: Growth inhibition of human A549 cells assessed as reduction in cell viability measured after 48 hrs by SRB assay; assay type: functional
EKVX = assay: Growth inhibition of human EKVX cells assessed as reduction in cell viability measured after 48 hrs by SRB assay; assay type: functional
HOP-92 = assay: Growth inhibition of human HOP-92 cells assessed as reduction in cell viability measured after 48 hrs by SRB assay; assay type: functional
NCI-H226 = assay: Growth inhibition of human NCI-H226 cells assessed as reduction in cell viability measured after 48 hrs by SRB assay; assay type: functional
NCI-H460 = assay: Growth inhibition of human NCI-H460 cells assessed as reduction in cell viability measured after 48 hrs by SRB assay; assay type: functional
NCI-H522 = assay: Growth inhibition of human NCI-H522 cells assessed as reduction in cell viability measured after 48 hrs by SRB assay; assay type: functional
COLO 205 = assay: Growth inhibition of human COLO 205 cells assessed as reduction in cell viability measured after 48 hrs by SRB assay; assay type: functional
HCC 2998 = assay: Growth inhibition of human HCC 2998 cells assessed as reduction in cell viability measured after 48 hrs by SRB assay; assay type: functional
HCT-15 = assay: Growth inhibition of human HCT-15 cells assessed as reduction in cell viability measured after 48 hrs by SRB assay; assay type: functional
HT-29 = assay: Growth inhibition of human HT-29 cells assessed as reduction in cell viability measured after 48 hrs by SRB assay; assay type: functional
KM12 = assay: Growth inhibition of human KM12 cells assessed as reduction in cell viability measured after 48 hrs by SRB assay; assay type: functional
SW-620 = assay: Growth inhibition of human SW620 cells assessed as reduction in cell viability measured after 48 hrs by SRB assay; assay type: functional
SF-268 = assay: Growth inhibition of human SF-268 cells assessed as reduction in cell viability measured after 48 hrs by SRB assay; assay type: functional
SF-295 = assay: Growth inhibition of human SF-295 cells assessed as reduction in cell viability measured after 48 hrs by SRB assay; assay type: functional
SF-539 = assay: Growth inhibition of human SF-539 cells assessed as reduction in cell viability measured after 48 hrs by SRB assay; assay type: functional
SNB-19 = assay: Growth inhibition of human SNB-19 cells assessed as reduction in cell viability measured after 48 hrs by SRB assay; assay type: functional
LOX IMVI = assay: Growth inhibition of human LOX IMVI cells assessed as reduction in cell viability measured after 48 hrs by SRB assay; assay type: functional
Malme-3M = assay: Growth inhibition of human Malme-3M cells assessed as reduction in cell viability measured after 48 hrs by SRB assay; assay type: functional
M14 = assay: Growth inhibition of human M14 cells assessed as reduction in cell viability measured after 48 hrs by SRB assay; assay type: functional
MDA-MB-435 = assay: Growth inhibition of human MDA-MB-435 cells assessed as reduction in cell viability measured after 48 hrs by SRB assay; assay type: functional
SK-MEL-2 = assay: Growth inhibition of human SK-MEL-2 cells assessed as reduction in cell viability measured after 48 hrs by SRB assay; assay type: functional
SK-MEL-28 = assay: Growth inhibition of human SK-MEL-28 cells assessed as reduction in cell viability measured after 48 hrs by SRB assay; assay type: functional
SK-MEL-5 = assay: Growth inhibition of human SK-MEL-5 cells assessed as reduction in cell viability measured after 48 hrs by SRB assay; assay type: functional
UACC-62 = assay: Growth inhibition of human UACC-62 cells assessed as reduction in cell viability measured after 48 hrs by SRB assay; assay type: functional
IGROV-1 = assay: Growth inhibition of human IGROV-1 cells assessed as reduction in cell viability measured after 48 hrs by SRB assay; assay type: functional
OVCAR-8 = assay: Growth inhibition of human OVCAR-8 cells assessed as reduction in cell viability measured after 48 hrs by SRB assay; assay type: functional
NCI/ADR-RES = assay: Growth inhibition of human NCI/ADR-RES cells assessed as reduction in cell viability measured after 48 hrs by SRB assay; assay type: functional
786-0 = assay: Growth inhibition of human 786-0 cells assessed as reduction in cell viability measured after 48 hrs by SRB assay; assay type: functional
A498 = assay: Growth inhibition of human A498 cells assessed as reduction in cell viability measured after 48 hrs by SRB assay; assay type: functional
ACHN = assay: Growth inhibition of human ACHN cells assessed as reduction in cell viability measured after 48 hrs by SRB assay; assay type: functional
CAKI-1 = assay: Growth inhibition of human CAKI-1 cells assessed as reduction in cell viability measured after 48 hrs by SRB assay; assay type: functional
RXF 393 = assay: Growth inhibition of human RXF 393 cells assessed as reduction in cell viability measured after 48 hrs by SRB assay; assay type: functional
TK-10 = assay: Growth inhibition of human TK-10 cells assessed as reduction in cell viability measured after 48 hrs by SRB assay; assay type: functional
PC-3 = assay: Growth inhibition of human PC-3 cells assessed as reduction in cell viability measured after 48 hrs by SRB assay; assay type: functional
DU-145 = assay: Growth inhibition of human DU-145 cells assessed as reduction in cell viability measured after 48 hrs by SRB assay; assay type: functional
MCF7 = assay: Growth inhibition of human MCF7 cells assessed as reduction in cell viability measured after 48 hrs by SRB assay; assay type: functional
MDA-MB-231 = assay: Growth inhibition of human MDA-MB-231 cells assessed as reduction in cell viability measured after 48 hrs by SRB assay; assay type: functional
Hs-578T = assay: Growth inhibition of human Hs-578T cells assessed as reduction in cell viability measured after 48 hrs by SRB assay; assay type: functional
BT-549 = assay: Growth inhibition of human BT-549 cells assessed as reduction in cell viability measured after 48 hrs by SRB assay; assay type: functional
T47D = assay: Growth inhibition of human T47D cells assessed as reduction in cell viability measured after 48 hrs by SRB assay; assay type: functional
[1] = biological target: T1, Mitogen-activated protein kinase 8 (Homo sapiens, UniProt P45983); assay: Inhibition of human JNK1 at 10 uM in presence of ATP relative to control
[2] = biological target: Mitogen-activated protein kinase 9 (Homo sapiens, UniProt P45984); assay: Inhibition of human JNK2 at 10 uM in presence of ATP relative to control
[3] = biological target: T1, Mitogen-activated protein kinase 8; assay: Inhibition of human JNK1 in presence of ATP

T1 sequence (P45983 whole entry): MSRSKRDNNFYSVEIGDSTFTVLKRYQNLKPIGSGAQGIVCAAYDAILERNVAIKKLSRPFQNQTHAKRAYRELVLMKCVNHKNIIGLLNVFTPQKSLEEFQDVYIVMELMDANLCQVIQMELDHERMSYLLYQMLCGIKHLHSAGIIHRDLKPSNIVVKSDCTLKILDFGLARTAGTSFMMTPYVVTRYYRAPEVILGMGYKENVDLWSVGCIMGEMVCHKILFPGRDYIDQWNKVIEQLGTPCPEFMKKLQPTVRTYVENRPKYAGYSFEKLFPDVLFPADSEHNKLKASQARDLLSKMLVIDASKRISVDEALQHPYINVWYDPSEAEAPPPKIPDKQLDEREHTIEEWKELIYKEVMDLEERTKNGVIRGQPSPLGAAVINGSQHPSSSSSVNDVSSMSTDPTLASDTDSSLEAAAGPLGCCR
Mitogen-activated protein kinase 9, sequence (P45984 whole entry, looked up): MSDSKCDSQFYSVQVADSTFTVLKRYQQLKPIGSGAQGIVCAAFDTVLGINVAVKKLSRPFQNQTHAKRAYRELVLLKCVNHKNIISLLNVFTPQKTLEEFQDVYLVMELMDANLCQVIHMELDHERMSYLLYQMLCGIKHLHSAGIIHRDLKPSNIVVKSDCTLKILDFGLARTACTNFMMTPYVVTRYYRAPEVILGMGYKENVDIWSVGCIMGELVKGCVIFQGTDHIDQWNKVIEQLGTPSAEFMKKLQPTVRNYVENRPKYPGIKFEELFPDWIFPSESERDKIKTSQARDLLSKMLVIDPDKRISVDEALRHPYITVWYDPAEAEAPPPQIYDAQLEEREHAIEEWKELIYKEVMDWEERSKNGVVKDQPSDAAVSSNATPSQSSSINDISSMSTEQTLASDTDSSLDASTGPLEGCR

For `CC(C)(C)n1cc(-c2ccnc(NCCCNS(=O)(=O)c3ccc(C(F)(F)F)cc3)c2)c(-c2cccc(O)c2)n1`, the GI50 (CCRF-CEM) was 2.98 µM, the GI50 (HL-60(TB)) was 2.81 µM and the GI50 (MOLT-4) was 2.33 µM. It also gave a GI50 (A549) of 2.02 µM, a GI50 (EKVX) of 1.82 µM and a GI50 (HOP-92) of 1.6 µM. The GI50 (NCI-H226) was 2.35 µM, the GI50 (NCI-H460) was 1.86 µM and the GI50 (NCI-H522) was 1.99 µM. For the same compound, the GI50 (COLO 205) was 1.95 µM, the GI50 (HCC 2998) was 1.82 µM and the GI50 (HCT-15) was 1.47 µM. For the same compound, the GI50 (HT-29) was 1.45 µM, the GI50 (KM12) was 2.15 µM and the GI50 (SW-620) was 1.89 µM. The GI50 (SF-268) was 1.75 µM, the GI50 (SF-295) was 1.69 µM and the GI50 (SF-539) was 1.65 µM. The GI50 (SNB-19) was 1.98 µM, the GI50 (LOX IMVI) was 1.72 µM and the GI50 (Malme-3M) was 1.72 µM. For the same compound, the GI50 (M14) was 2 µM, the GI50 (MDA-MB-435) was 1.81 µM and the GI50 (SK-MEL-2) was 2.1 µM. It also gave a GI50 (SK-MEL-28) of 1.75 µM, a GI50 (SK-MEL-5) of 1.6 µM and a GI50 (UACC-62) of 1.69 µM. The GI50 (IGROV-1) was 1.8 µM, the GI50 (OVCAR-8) was 2.46 µM and the GI50 (NCI/ADR-RES) was 2.07 µM. The GI50 (786-0) was 1.8 µM, the GI50 (A498) was 1.54 µM and the GI50 (ACHN) was 1.88 µM. For the same compound, the GI50 (CAKI-1) was 1.99 µM, the GI50 (RXF 393) was 1.46 µM and the GI50 (TK-10) was 2.31 µM. It also gave a GI50 (PC-3) of 1.64 µM, a GI50 (DU-145) of 1.94 µM and a GI50 (MCF7) of 1.78 µM. It also gave a GI50 (MDA-MB-231) of 2.13 µM, a GI50 (Hs-578T) of 1.98 µM and a GI50 (BT-549) of 1.61 µM. The GI50 (T47D) was 2.24 µM, the inhibition [1] was 99.5% and the inhibition [2] was 98.7%. The IC50 [3] was 0.142 µM.
Work on `O=C1c2ccccc2-c2n[nH]c3cccc1c23` yielded a GI50 (CCRF-CEM) of 16 µM, a GI50 (HL-60(TB)) of 42.1 µM and a GI50 (MOLT-4) of 20.4 µM. The GI50 (A549) was 14.9 µM, the GI50 (EKVX) was 20 µM and the GI50 (HOP-92) was 37.6 µM. For the same compound, the GI50 (NCI-H226) was 22.9 µM, the GI50 (NCI-H460) was 9.86 µM and the GI50 (NCI-H522) was 12.2 µM. The GI50 (COLO 205) was 19.5 µM, the GI50 (HCC 2998) was 9.62 µM and the GI50 (HCT-15) was 8.04 µM. The GI50 (HT-29) was 25.9 µM, the GI50 (KM12) was 2.62 µM and the GI50 (SW-620) was 10.9 µM. For the same compound, the GI50 (SF-268) was 18.4 µM, the GI50 (SF-295) was 22.5 µM and the GI50 (SF-539) was 32.2 µM. The GI50 (SNB-19) was 50 µM, the GI50 (Malme-3M) was 16.4 µM and the GI50 (M14) was 100 µM. For the same compound, the GI50 (MDA-MB-435) was 12.8 µM, the GI50 (SK-MEL-2) was 29 µM and the GI50 (SK-MEL-28) was 37.5 µM. It also gave a GI50 (SK-MEL-5) of 14.6 µM, a GI50 (UACC-62) of 14.6 µM and a GI50 (IGROV-1) of 11.3 µM. It also gave a GI50 (OVCAR-8) of 22 µM, a GI50 (NCI/ADR-RES) of 22.6 µM and a GI50 (786-0) of 27.1 µM. It also gave a GI50 (A498) of 7.03 µM, a GI50 (ACHN) of 6.64 µM and a GI50 (CAKI-1) of 3.56 µM. The GI50 (RXF 393) was 20.8 µM, the GI50 (TK-10) was 5.93 µM and the GI50 (PC-3) was 23.3 µM. For the same compound, the GI50 (DU-145) was 28.2 µM, the GI50 (MCF7) was 49 µM and the GI50 (MDA-MB-231) was 65.3 µM. The GI50 (Hs-578T) was 55.1 µM, the GI50 (BT-549) was 30.8 µM and the GI50 (T47D) was over 100 µM.
